These are literature values, as cited in patent publication US6004792A, “Human lysophospholipase” (Incyte Pharmaceuticals, Inc., priority 1998, dated 1999).

This data set has as its target T1, monomeric 24 kD lysophospholipase (LPL) from rat liver (GI 1552244; SEQ ID NO:3) (Rattus norvegicus, UniProt P70470).
T1 construct: isolated a monomeric, 24 kD LPL from rat liver; host or cells: rat liver (enzyme isolated from tissue, Sugimoto et al. 1996)
The conditions noted are these: substrate 1-palmitoyl-glycero-3-phosphocholine.

Molecules are shown by their SMILES.

T1 sequence (P70470 whole entry): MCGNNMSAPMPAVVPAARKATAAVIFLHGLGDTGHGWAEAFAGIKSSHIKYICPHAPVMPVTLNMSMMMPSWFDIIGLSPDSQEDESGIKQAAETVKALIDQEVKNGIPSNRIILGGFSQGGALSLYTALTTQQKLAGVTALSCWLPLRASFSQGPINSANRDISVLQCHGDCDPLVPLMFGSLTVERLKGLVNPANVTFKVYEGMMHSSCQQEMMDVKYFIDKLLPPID

In the case of `CCCCCCCCCCCCCCCC(=O)OCC(O)COP(=O)([O-])OCC[N+](C)(C)C` (stereo not shown) [1-palmitoyl-glycero-3-phosphocholine], the Vmax is 1.55 µM/min/mg.

What is called Vmax is the top rate of the reaction or transport when substrate is in excess.
